Results reported in patent US20090143285A1, “TARGET PROTEIN AND TARGET GENE FOR DRUG DISCOVERY AND SCREENING METHOD” (REVERSE PROTEOMICS RESEARCH INSTITUTE CO., LTD., priority 2005, published 2009).
Changes are numbered by the printed parent chain. Entries after “also recorded” stand apart in the source; their conditions may differ.

How the values were obtained:
FLJ39553-derived protein = target: T1, FLJ39553-derived protein (Homo sapiens, UniProt Q6P6B1, N326S); experiment: SEC/MS interaction analysis, FLJ39553-derived protein (hypothetical protein FLJ39553); assay type: binding; details: TSKgel super SW2000 micro-LC column (1.0 mm ID×30 mm); presence vs absence of protein; data not shown
T1 construct: His-tag (N); made in house; host or cells: Escherichia coli BL21star(DE3)pLysS
T1 sequence (Q6P6B1 1-374 N326S): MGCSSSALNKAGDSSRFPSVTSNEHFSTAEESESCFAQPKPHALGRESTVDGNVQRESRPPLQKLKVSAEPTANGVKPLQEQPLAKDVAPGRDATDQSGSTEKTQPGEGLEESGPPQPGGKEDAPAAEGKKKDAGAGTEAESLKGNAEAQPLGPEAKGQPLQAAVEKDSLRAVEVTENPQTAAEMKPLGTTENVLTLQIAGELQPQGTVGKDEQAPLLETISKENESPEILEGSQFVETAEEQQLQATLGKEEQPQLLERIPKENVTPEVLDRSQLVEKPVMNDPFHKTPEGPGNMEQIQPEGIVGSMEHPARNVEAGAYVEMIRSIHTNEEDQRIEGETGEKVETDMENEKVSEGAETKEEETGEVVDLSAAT
Description: (§1) To analyze the interactions between commonly used drugs and proteins expressed from human full-length cDNA clones while keeping both the proteins and the compounds in non-modified, non-immobilized state, size exclusion chromatography (SEC) and mass analysis were used in combination. The specific procedures are shown below.
(§2) The compound-protein mixture prepared in step 1 was subjected to chromatography using an SEC column, the compound and the protein were separated by SEC, and the compound that interacted with the bound compound or protein contained in the protein fraction was analyzed using a mass analyzer.
(§3) Protein concentrations were measured using BCA Protein Assay (PIERCE), in consideration of the purity calculated by SDS-PAGE.
(§4) Mass analysis was performed using LCQ DECA XP (Thermoelectron) or Q-TOF micro (Micromass), equipped with an ESI probe. […]
(§5) In the 384-well spin column method, Unifilter 100 (Whatman), packed with 10 μL (dry volume) of Bio-Gel P6 (BIO-RAD) and swollen with milliQ water, was used as the SEC column. […] 2-μL of mass analysis samples were injected using an autosampler at 2-minute intervals; the mass spectral intensity of the compound was measured to retrieve the spectral intensity of the pharmaceutical compound contained in the SEC spin column filtrate (protein fraction eluted from SEC).

[1] = system: FLJXXXXX-derived proteins; experiment: SEC/MS spin column interaction analysis of FLJXXXXX-derived proteins and various compounds (Tables 30-1 to 30-4); assay type: binding, human; details: SEC spin column filtrate, spectral intensity increased with doses of compound and protein
FLJ38897-derived protein = target: T2, FLJ38897-derived protein (Homo sapiens, UniProt P57764); experiment: SEC/MS interaction analysis, FLJ38897-derived protein (GSDMDC1); assay type: binding; details: spin column method; mixture with protein vs buffer solution alone; data not shown
T2 construct: His-tag (N); made in house; host or cells: Escherichia coli BL21star(DE3)pLysS
T2 sequence (P57764 265-484): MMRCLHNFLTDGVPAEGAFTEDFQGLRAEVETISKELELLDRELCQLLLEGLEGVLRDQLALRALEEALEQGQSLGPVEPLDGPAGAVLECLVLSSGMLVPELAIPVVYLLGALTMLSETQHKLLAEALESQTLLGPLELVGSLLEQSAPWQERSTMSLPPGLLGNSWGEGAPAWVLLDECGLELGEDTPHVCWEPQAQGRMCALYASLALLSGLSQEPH
Description: as §1, §2, §3
(§6) Mass analysis was performed using LCQ DECA XP (Thermoelectron) or Q-TOF micro (Micromass), equipped with an ESI probe. The LC pump used was Agilent 1100 (Yokogawa Analytical Systems), and the autosampler used was HTC-PAL (CTC Analytics) equipped with a cooling stacker. The SEC column used was a micro-LC column or a 384-well spin column. […]
(§7) In the 384-well spin column method, Unifilter 100 (Whatman), packed with 10 μL (dry volume) of Bio-Gel P6 (BIO-RAD) and swollen with milliQ water, was used as the SEC column. […] The SEC spin column was mounted on an acetonitrile-aliquoted 384-well U-bottom plate and centrifuged; the SEC spin column filtrate, which is a protein fraction, was recovered in 50% acetonitrile. The protein precipitate produced by the acetonitrile was removed via centrifugation and filtration for deproteinization; the resulting filtrate was concentrated by centrifugal concentration and re-dissolved in 10 μL of 50% methanol to obtain a mass analysis sample. The mobile phase supplied to the mass analyzer was 0.1% formic acid/50% methanol solution in the positive ion mode, and 0.1% ammonia/50% methanol solution in the negative ion mode; these mobile phases were used at a flow rate of 40 μL/min. 2-μL of mass analysis samples were injected using an autosampler at 2-minute intervals; the mass spectral intensity of the compound was measured to retrieve the spectral intensity of the pharmaceutical compound contained in the SEC spin column filtrate (protein fraction eluted from SEC).

FLJ41991-derived protein = target: T3, FLJ41991-derived protein (Homo sapiens, UniProt P57764, E293G); experiment: SEC/MS interaction analysis, FLJ41991-derived protein (GSDMDC1); assay type: binding; details: for interaction judged from spectrum intensity of the compound in the SEC spin column filtrate (protein fraction eluted from SEC): spin column method, doses of both compound and protein varied
T3 construct: His-tag (N); made in house; host or cells: Escherichia coli BL21star(DE3)pLysS (pDEST17)
T3 sequence (P57764 265-484 E293G): T2 sequence (P57764 265-484) with E29G
Description: as §1, §2, §3, §6, §7

FLJ10537-derived protein = target: T4, FLJ10537-derived protein (Homo sapiens, UniProt Q9NR28); experiment: SEC/MS interaction analysis, FLJ10537-derived protein (DIABLO homolog; SMAC); assay type: binding; details: TSKgel super SW2000 micro-LC column (1.0 mm ID×30 mm); presence vs absence of protein; data not shown
T4 construct: His-tag (N); made in house; host or cells: Escherichia coli BL21star(DE3)pLysS
T4 sequence (Q9NR28 1-186 isoform Q9NR28-2): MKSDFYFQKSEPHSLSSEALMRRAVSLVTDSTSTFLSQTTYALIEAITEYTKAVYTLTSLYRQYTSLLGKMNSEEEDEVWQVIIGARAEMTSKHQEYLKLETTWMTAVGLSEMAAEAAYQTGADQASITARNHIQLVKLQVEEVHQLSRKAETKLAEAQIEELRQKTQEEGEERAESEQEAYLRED
Description: as §1, §2, §3, §4, §5

[2] = compound 12.5 μM, protein 10 μM
[3] = compound 12.5 μM, protein 25 μM
[4] = compound 62.5 μM, protein 10 μM
[5] = compound 62.5 μM, protein 25 μM

Structure (SMILES)	interaction judged from mass chromatogram of the compound (elution from SEC micro-LC column) (FLJ39553-derived protein)	FLJ No of the derived protein with which the compound was judged to exhibit a concentration-dependent interaction [1]	interaction judged from mass spectrum peak intensity of the compound in the spin column filtrate (FLJ38897-derived protein)	spectrum intensity of the compound in the SEC spin column filtrate (FLJ41991-derived protein; compound 12.5 μM, protein 0 μM)	spectrum intensity of the compound in the SEC spin column filtrate (FLJ41991-derived protein; compound 12.5 μM, protein 5 μM)	spectrum intensity of the compound in the SEC spin column filtrate (FLJ41991-derived protein; [2])	spectrum intensity of the compound in the SEC spin column filtrate (FLJ41991-derived protein; [3])	spectrum intensity of the compound in the SEC spin column filtrate (FLJ41991-derived protein; compound 25 μM, protein 0 μM)	spectrum intensity of the compound in the SEC spin column filtrate (FLJ41991-derived protein; compound 25 μM, protein 5 μM)	spectrum intensity of the compound in the SEC spin column filtrate (FLJ41991-derived protein; compound 25 μM, protein 10 μM)	spectrum intensity of the compound in the SEC spin column filtrate (FLJ41991-derived protein; compound 25 μM, protein 25 μM)	spectrum intensity of the compound in the SEC spin column filtrate (FLJ41991-derived protein; compound 62.5 μM, protein 0 μM)	spectrum intensity of the compound in the SEC spin column filtrate (FLJ41991-derived protein; compound 62.5 μM, protein 5 μM)	spectrum intensity of the compound in the SEC spin column filtrate (FLJ41991-derived protein; [4])	spectrum intensity of the compound in the SEC spin column filtrate (FLJ41991-derived protein; [5])	interaction judged from spectrum intensity of the compound in the SEC spin column filtrate (protein fraction eluted from SEC) (FLJ41991-derived protein)	interaction judged from mass chromatogram of the compound (elution from SEC micro-LC column) (FLJ10537-derived protein)
C[C@@H]1[C@H](O)[C@@H](C)/C=C/C=C/C=C/C=C/C=C/C=C/C=C/[C@H](O[C@@H]2O[C@H](C)[C@@H](O)[C@H](N)[C@@H]2O)C[C@@H]2O[C@](O)(C[C@@H](O)C[C@@H](O)[C@H](O)CC[C@@H](O)C[C@@H](O)CC(=O)O[C@H]1C)C[C@H](O)[C@H]2C(=O)O [amphotericin B]	there was an interaction	FLJ39553															
OC(c1cc(C(F)(F)F)nc2c(C(F)(F)F)cccc12)C1CCCCN1 (stereo not drawn) [mefloquine]		FLJ37909; also recorded: FLJ38897; also recorded: FLJ41991	there was an interaction	16334	46239	101775	453818	27931	100287	273106	1788847	97153	528117	2017157	4385022	concentration-dependent interaction	
COc1c2occc2cc2ccc(=O)oc12 [methoxsalen]		FLJ10537															there was an interaction
OCCN1CCN(CCCN2c3ccccc3Sc3ccc(Cl)cc32)CC1 [perphenazine]		FLJ38897; also recorded: FLJ41991	there was an interaction	23424	43607	83672	314285	38186	71806	229107	799962	35061	208220	695158	2872912	concentration-dependent interaction	
O=C(c1ccc(OCCN2CCCCC2)cc1)c1c(-c2ccc(O)cc2)sc2cc(O)ccc12 [raloxifene]		FLJ37909; also recorded: FLJ38897; also recorded: FLJ41991	there was an interaction	19251	32265	67187		37961	52442	119306	1312562	58164	153267	1091123	3195671	concentration-dependent interaction	
